Laboratory results: patent US10800791B2, “Triazole ACC inhibitors and uses thereof” (Gilead Apollo, LLC, priority 2015, dated 2020)
In brackets after ≈: the same amount, converted by molar mass. Where two headings read alike, the source gives them in different places.

Legend:
[1] = test system: Phytophthora capsici (Pc); assay: Growth inhibition assay of fungal pathogens, Pc; assay type: cell-based; conditions: 48 h
Method in brief: (§1)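 Pathogen growth in 17% V8 broth is measured by OD600 at 24 and 48 hours, after blank subtraction, in the presence of compound at 50, 10 and 2 ppm or 2, 0.4 and 0.08 ppm. Inhibition in percent comes from 48-hour readings against the DMSO control.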

[2] = test system: Diplodia maydis (Dm); assay: Growth inhibition assay of fungal pathogens, Dm; assay type: cell-based; conditions: Stenocarpella maydis, 48 h
Method in brief: as §1

[3] = test system: Fusarium virguliforme (Fv); assay: Growth inhibition assay of fungal pathogens, Fv; assay type: cell-based; conditions: 48 h
Method in brief: as §1

[4] = target: fungal (fACC2) (UniProt Q00955); conditions: read-out: fACC2 (in vitro ACC2 Inhibition Assay, IC50), ADP-Glo, 5 nM ACC2, 20 μM ATP, 20 μM acetyl-CoA
fungal (fACC2), sequence (Q00955 whole entry): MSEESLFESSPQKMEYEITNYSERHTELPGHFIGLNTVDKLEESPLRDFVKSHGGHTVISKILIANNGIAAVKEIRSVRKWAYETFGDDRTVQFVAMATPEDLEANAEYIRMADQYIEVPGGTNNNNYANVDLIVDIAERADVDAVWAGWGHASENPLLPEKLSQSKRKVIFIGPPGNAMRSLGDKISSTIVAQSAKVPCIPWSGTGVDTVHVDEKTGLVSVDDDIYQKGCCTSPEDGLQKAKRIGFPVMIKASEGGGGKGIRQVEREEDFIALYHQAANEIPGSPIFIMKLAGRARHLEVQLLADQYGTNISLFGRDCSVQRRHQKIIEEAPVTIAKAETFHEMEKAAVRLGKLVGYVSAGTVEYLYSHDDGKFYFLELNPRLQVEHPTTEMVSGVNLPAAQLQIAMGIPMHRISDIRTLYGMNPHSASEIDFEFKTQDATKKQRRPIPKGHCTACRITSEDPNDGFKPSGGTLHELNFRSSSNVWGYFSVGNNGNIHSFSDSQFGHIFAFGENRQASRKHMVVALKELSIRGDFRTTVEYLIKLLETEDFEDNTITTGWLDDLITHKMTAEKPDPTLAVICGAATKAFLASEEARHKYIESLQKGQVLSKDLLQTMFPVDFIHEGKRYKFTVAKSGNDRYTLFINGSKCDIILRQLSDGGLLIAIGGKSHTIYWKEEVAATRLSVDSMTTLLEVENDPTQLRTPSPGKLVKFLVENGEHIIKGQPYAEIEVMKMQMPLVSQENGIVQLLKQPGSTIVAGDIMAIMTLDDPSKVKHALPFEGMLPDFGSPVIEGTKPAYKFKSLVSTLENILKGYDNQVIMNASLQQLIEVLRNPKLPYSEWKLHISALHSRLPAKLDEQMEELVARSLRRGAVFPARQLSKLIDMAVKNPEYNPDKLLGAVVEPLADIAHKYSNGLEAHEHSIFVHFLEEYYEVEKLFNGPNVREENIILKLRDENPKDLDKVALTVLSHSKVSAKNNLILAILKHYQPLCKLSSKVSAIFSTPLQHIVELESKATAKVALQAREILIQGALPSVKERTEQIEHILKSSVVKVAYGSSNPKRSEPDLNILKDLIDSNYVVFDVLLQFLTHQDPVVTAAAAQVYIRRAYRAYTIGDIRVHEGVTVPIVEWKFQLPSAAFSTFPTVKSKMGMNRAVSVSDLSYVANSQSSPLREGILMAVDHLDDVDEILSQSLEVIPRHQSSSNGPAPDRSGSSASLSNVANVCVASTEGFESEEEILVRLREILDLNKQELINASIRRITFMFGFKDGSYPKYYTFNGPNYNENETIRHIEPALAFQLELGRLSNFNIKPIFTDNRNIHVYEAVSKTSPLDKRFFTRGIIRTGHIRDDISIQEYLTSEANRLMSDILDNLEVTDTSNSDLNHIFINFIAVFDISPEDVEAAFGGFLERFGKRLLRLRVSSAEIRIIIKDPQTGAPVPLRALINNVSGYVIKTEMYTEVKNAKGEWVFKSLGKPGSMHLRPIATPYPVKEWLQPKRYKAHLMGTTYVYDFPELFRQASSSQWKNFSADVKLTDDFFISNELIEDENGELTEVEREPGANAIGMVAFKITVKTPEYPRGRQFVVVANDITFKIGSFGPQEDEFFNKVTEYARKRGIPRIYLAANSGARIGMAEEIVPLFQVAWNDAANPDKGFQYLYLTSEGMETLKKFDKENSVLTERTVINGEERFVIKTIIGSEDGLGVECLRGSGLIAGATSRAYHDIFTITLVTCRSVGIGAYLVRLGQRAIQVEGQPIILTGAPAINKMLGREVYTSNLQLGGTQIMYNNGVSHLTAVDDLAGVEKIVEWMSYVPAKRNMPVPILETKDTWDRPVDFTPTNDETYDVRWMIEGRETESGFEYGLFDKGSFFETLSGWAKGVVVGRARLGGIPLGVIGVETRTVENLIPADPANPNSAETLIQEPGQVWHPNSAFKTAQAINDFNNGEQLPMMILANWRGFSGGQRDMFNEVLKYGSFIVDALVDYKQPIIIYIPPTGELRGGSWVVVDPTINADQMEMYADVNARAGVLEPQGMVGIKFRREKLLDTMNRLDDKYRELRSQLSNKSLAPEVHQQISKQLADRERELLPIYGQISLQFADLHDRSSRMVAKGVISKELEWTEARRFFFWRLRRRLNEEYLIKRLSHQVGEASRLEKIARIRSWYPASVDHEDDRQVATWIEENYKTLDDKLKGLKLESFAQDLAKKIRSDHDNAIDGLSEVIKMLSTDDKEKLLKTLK

[5] = target: human (hACC2) (Homo sapiens, UniProt O00763); assay: In vitro ACC inhibition assay (ADP-Glo), hACC2; assay type: biochemical; conditions: 5 nM ACC2, 20 μM ATP, 20 μM acetyl-CoA
human (hACC2), sequence (O00763 whole entry): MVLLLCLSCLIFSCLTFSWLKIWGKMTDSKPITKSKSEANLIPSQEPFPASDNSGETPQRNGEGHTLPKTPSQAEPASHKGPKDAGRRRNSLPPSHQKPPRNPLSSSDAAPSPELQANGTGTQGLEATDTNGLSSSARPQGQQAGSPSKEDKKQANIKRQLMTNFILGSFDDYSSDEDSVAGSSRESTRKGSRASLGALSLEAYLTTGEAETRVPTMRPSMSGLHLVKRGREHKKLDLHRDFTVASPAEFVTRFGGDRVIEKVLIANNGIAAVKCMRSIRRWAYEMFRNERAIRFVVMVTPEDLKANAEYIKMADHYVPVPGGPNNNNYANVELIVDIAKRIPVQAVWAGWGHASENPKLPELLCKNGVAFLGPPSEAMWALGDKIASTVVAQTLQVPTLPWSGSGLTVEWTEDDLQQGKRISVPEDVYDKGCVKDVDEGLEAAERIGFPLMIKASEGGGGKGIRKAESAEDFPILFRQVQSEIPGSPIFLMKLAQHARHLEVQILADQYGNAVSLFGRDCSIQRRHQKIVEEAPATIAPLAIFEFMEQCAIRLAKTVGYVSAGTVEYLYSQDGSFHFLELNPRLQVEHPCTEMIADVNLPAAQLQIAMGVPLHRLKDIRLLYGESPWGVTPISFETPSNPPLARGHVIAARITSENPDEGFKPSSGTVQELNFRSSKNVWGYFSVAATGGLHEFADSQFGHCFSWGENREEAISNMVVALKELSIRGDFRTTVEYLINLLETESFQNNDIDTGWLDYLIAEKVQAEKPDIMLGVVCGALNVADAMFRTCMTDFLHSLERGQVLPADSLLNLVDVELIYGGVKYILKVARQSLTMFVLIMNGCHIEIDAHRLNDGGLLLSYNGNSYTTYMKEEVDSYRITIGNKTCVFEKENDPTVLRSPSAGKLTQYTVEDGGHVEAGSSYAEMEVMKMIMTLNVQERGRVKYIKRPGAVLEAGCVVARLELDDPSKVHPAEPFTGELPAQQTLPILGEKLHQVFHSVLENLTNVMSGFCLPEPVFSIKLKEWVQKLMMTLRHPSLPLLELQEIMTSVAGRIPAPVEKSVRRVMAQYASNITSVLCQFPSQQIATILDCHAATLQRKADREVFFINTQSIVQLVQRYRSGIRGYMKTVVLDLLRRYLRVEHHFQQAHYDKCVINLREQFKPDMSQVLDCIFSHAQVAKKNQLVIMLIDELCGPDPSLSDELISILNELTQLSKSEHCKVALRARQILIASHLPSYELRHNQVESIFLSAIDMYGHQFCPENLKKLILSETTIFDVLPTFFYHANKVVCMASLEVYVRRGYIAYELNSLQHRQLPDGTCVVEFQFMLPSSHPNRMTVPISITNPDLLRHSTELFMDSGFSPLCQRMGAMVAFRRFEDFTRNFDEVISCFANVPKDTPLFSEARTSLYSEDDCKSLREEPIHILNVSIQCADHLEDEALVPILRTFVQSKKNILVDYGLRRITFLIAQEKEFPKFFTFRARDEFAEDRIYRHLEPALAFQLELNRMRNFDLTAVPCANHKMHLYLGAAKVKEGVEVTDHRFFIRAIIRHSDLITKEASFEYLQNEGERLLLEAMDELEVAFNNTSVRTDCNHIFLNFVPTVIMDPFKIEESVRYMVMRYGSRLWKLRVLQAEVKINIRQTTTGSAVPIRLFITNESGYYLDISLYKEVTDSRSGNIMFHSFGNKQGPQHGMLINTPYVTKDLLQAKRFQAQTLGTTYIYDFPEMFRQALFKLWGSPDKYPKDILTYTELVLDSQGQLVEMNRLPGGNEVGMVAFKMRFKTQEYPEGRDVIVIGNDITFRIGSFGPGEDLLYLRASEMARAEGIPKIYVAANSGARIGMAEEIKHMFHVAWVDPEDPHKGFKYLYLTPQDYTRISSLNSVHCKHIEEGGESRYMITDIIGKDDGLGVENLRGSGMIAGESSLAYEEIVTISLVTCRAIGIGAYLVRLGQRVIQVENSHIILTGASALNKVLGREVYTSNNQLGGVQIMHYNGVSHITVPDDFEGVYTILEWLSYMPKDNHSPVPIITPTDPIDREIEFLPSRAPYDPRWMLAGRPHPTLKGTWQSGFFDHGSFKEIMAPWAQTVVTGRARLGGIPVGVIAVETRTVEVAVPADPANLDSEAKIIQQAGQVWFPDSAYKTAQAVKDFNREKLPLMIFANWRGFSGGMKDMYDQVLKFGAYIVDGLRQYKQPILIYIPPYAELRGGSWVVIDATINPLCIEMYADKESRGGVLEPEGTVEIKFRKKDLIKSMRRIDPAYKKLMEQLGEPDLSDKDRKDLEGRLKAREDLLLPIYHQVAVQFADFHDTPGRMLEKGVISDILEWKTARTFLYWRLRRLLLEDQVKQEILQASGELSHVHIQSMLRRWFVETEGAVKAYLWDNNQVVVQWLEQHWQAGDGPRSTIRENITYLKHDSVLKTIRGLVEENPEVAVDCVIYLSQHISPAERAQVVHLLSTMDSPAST
Description: The detailed procedure is as follows. […] 10 μL ADP glo reagent was added. […] 20 μL kinase detection reagent was added.

[6] = test system: C. albicans; assay: Antifungal Activity Assay (broth microtiter MIC), C. albicans; assay type: cell-based, Candida albicans; conditions: Candida albicans, ATCC90028, 48 h
Method in brief: (§2)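 Endpoint: lowest concentration visibly inhibiting growth relative to control after 48 h. Inoculum of 2.5×10^3 CFU/mL final in RPMI 1640+MOPS, prepared from overnight 35° C agar cultures; test compounds diluted in water to 128 μg/mL before plating.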

[7] = test system: C. krusei; assay: Antifungal Activity Assay (broth microtiter MIC), C. krusei; assay type: cell-based, Candida krusei; conditions: Pichia kudriavzevii, ATCC6258, 48 h
Method in brief: as §2

[8] = test system: C. parapsilosis; assay: Antifungal Activity Assay (broth microtiter MIC), C. parapsilosis; assay type: cell-based, Candida parapsilosis; conditions: Lodderomyces parapsilosis, ATCC22019, 48 h
Method in brief: as §2

[9] = test system: Rhizoctonia solani (Rs); assay: Growth inhibition assay of fungal pathogens, Rs; assay type: cell-based; conditions: 48 h
[10] = test system: Botrtyis cinerea (Bc); assay: Growth inhibition assay of fungal pathogens, Bc; assay type: cell-based; conditions: 48 h
Method in brief: as §1

[11] = growth inhibition at 48 hours vs 2% DMSO control, read-out: Concentration at 90% Inhibition Pc
[12] = growth inhibition vs 2% DMSO control at 48 hours, read-out: Concentration at 90% Inhibition Pc
[13] = Diplodia maydis, growth inhibition at 48 hours vs 2% DMSO control, read-out: Concentration at 90% Inhibition Dm
[14] = Diplodia maydis, growth inhibition vs 2% DMSO control at 48 hours, read-out: Concentration at 90% Inhibition Dm
[15] = growth inhibition at 48 hours vs 2% DMSO control, read-out: Concentration at 90% Inhibition Fv
[16] = growth inhibition vs 2% DMSO control at 48 hours, read-out: Concentration at 90% Inhibition Fv
[17] = Table 3b (additional results), ATCC 90028, 3 replicates, MIC recorded at 48 h, read-out: MIC, C. albicans ATCC 90028
[18] = Table 3b (additional results), ATCC 6258, 3 replicates, MIC recorded at 48 h, read-out: MIC, C. krusei ATCC 6258
[19] = Table 3b (additional results), ATCC 22019, 3 replicates, MIC recorded at 48 h, read-out: MIC, C. parapsilosis ATCC 22019
[20] = mycelial plugs, growth inhibition at 48 hours vs 2% DMSO control, read-out: Concentration at 90% Inhibition Rs
[21] = mycelial plugs, growth inhibition vs 2% DMSO control at 48 hours, read-out: Concentration at 90% Inhibition Rs
[22] = Botrtyis cinerea, growth inhibition at 48 hours vs 2% DMSO control, read-out: Concentration at 90% Inhibition Bc
[23] = Botrtyis cinerea, growth inhibition vs 2% DMSO control at 48 hours, read-out: Concentration at 90% Inhibition Bc
[24] = read-out: Concentration at 90% Inhibition Pc, Phytophthora capsici, growth inhibition at 48 hours vs 2% DMSO control
[25] = read-out: Concentration at 90% Inhibition Pc, Phytophthora capsici, growth inhibition vs 2% DMSO control at 48 hours
[26] = read-out: Concentration at 90% Inhibition Dm, Diplodia maydis, growth inhibition at 48 hours vs 2% DMSO control
[27] = read-out: Concentration at 90% Inhibition Dm, Diplodia maydis, growth inhibition vs 2% DMSO control at 48 hours
[28] = read-out: Concentration at 90% Inhibition Fv, Fusarium virguliforme, growth inhibition at 48 hours vs 2% DMSO control
[29] = read-out: Concentration at 90% Inhibition Fv, Fusarium virguliforme, growth inhibition vs 2% DMSO control at 48 hours
[30] = read-out: MIC, C. albicans ATCC 90028, Table 3b (additional results), 3 replicates, MIC recorded at 48 h
[31] = read-out: MIC, C. krusei ATCC 6258, Table 3b (additional results), 3 replicates, MIC recorded at 48 h
[32] = read-out: MIC, C. parapsilosis ATCC 22019, Table 3b (additional results), 3 replicates, MIC recorded at 48 h
[33] = read-out: Concentration at 90% Inhibition Rs, Rhizoctonia solani, mycelial plugs, growth inhibition at 48 hours vs 2% DMSO control
[34] = read-out: Concentration at 90% Inhibition Rs, Rhizoctonia solani, mycelial plugs, growth inhibition vs 2% DMSO control at 48 hours
[35] = read-out: Concentration at 90% Inhibition Bc, Botrtyis cinerea, growth inhibition at 48 hours vs 2% DMSO control
[36] = read-out: Concentration at 90% Inhibition Bc, Botrtyis cinerea, growth inhibition vs 2% DMSO control at 48 hours

| Compound | IC90 [1, 11] | IC90 [1, 12] | IC90 [2, 13] | IC90 [2, 14] | IC90 [3, 15] | IC90 [3, 16] | IC50 ([4]; Table 2a) | IC50 ([4]; Table 2b, additional results) | IC50 ([5]; Table 2a) | IC50 ([5]; Table 2b, additional results) | MIC [6, 17] | MIC [7, 18] | MIC [8, 19] | IC90 [9, 20] | IC90 [9, 21] | IC90 [10, 22] | IC90 [10, 23] | IC90 [1, 24] | IC90 [1, 25] | IC90 [2, 26] | further results |
| --- | --- | --- | --- | --- | --- | --- | --- | --- | --- | --- | --- | --- | --- | --- | --- | --- | --- | --- | --- | --- | --- |
| COCCO[C@@H](Cn1c(=O)n([C@H](C)C(=O)N2CCCC2)c(=O)c2c(C)c(-n3nccn3)sc21)c1cc(F)ccc1OC [Compound I-65, 1-((R)-2-(5-fluoro-2-methoxyphenyl)-2-(2-methoxy-ethoxy)ethyl)-5-methyl-3-((R)-1-oxo-1-(pyrrolidin-1-yl)propan-2-yl)-6-(2H-1,2,3-triazol-2-yl)thieno[2,3-d]pyrimidine-2,4(1H,3H)-dione] | > 50 µg/mL | > 50 µg/mL | 10 µg/mL (≈ 16.6 µM) | > 50 µg/mL | 0.4 µg/mL (≈ 0.666 µM) | 0.4 µg/mL (≈ 0.666 µM) | 0.4 to 1 nM | 0.3 to 1 nM | 10 to 40 nM | 10 to 40 nM | 2.01 to 4 µg/mL (≈ 3.35 to 6.66 µM) | 2.01 to 4 µg/mL (≈ 3.35 to 6.66 µM) | 1.01 to 2 µg/mL (≈ 1.68 to 3.33 µM) | 2 µg/mL (≈ 3.33 µM) | 2 µg/mL (≈ 3.33 µM) | 2 µg/mL (≈ 3.33 µM) | 2 µg/mL (≈ 3.33 µM) |  |  |  | MIC ([6]; Table 3a, ATCC 90028, 3 replicates, MIC recorded at 48 h, read-out: MIC, C. albicans ATCC 90028): 2.1 to 4 µg/mL (≈ 3.5 to 6.66 µM); MIC ([7]; Table 3a, ATCC 6258, 3 replicates, MIC recorded at 48 h, read-out: MIC, C. krusei ATCC 6258): 2.1 to 4 µg/mL (≈ 3.5 to 6.66 µM); MIC ([8]; Table 3a, ATCC 22019, 3 replicates, MIC recorded at 48 h, read-out: MIC, C. parapsilosis ATCC 22019): 2.1 to 4 µg/mL (≈ 3.5 to 6.66 µM) |
| COCCCO[C@@H](Cn1c(=O)n(C(C)(C)C(=O)N2CCCC2)c(=O)c2c(C)c(-n3nccn3)sc21)c1cc(F)ccc1OC [Compound I-68, (R)-1-(2-(5-fluoro-2-methoxyphenyl)-2-(3-methoxy-propoxy)ethyl)-5-methyl-3-(2-methyl-1-oxo-1-(pyrrolidin-1-yl)propan-2-yl)-6-(2H-1,2,3-triazol-2-yl)thieno[2,3-d]pyrimidine-2,4(1H,3H)-dione] | > 50 µg/mL | > 50 µg/mL | 2 µg/mL (≈ 3.18 µM) | 2 µg/mL (≈ 3.18 µM) | 0.4 µg/mL (≈ 0.636 µM) | 0.4 µg/mL (≈ 0.636 µM) | 1 to 5 nM | 1 to 5 nM | 5 to 10 nM | 5 to 10 nM | 2.01 to 4 µg/mL (≈ 3.2 to 6.36 µM) | 2.01 to 4 µg/mL (≈ 3.2 to 6.36 µM) | 1.01 to 2 µg/mL (≈ 1.61 to 3.18 µM) | 0.4 µg/mL (≈ 0.636 µM) | 0.4 µg/mL (≈ 0.636 µM) | 2 µg/mL (≈ 3.18 µM) | 2 µg/mL (≈ 3.18 µM) |  |  |  |  |
| COCCCO[C@@H](Cn1c(=O)n(C(C)(C)C(=O)NC(C)C)c(=O)c2c(C)c(-n3nccn3)sc21)c1cc(F)ccc1OC [Compound I-69, (R)-2-(1-(2-(5-fluoro-2-methoxyphenyl)-2-(3-methoxy-propoxy)ethyl)-5-methyl-2,4-dioxo-6-(2H-1,2,3-triazol-2-yl)-1,4-dihydrothieno[2,3-d]pyrimidin-3(2H)-yl)-N-isopropyl-2-methylpropanamide] |  |  |  |  |  |  | 0.4 to 1 nM | 0.3 to 1 nM | 5 to 10 nM | 5 to 10 nM |  |  |  |  |  |  |  | > 50 µg/mL | > 50 µg/mL | 0.08 µg/mL (≈ 0.13 µM) | IC90 [2, 27]: 0.08 µg/mL (≈ 0.13 µM); IC90 [3, 28]: 0.08 µg/mL (≈ 0.13 µM); IC90 [3, 29]: 0.08 µg/mL (≈ 0.13 µM); MIC [6, 30]: 1.01 to 2 µg/mL (≈ 1.64 to 3.24 µM); MIC [7, 31]: 0.25 to 1 µg/mL (≈ 0.405 to 1.62 µM); MIC [8, 32]: 0.25 to 1 µg/mL (≈ 0.405 to 1.62 µM); IC90 [9, 33]: 0.4 µg/mL (≈ 0.649 µM); IC90 [9, 34]: 0.4 µg/mL (≈ 0.649 µM); IC90 [10, 35]: 0.4 µg/mL (≈ 0.649 µM); IC90 [10, 36]: 0.4 µg/mL (≈ 0.649 µM) |
| C=CCNC(=O)C(C)(C)n1c(=O)c2c(C)c(-n3nccn3)sc2n(C[C@H](OC2CCOCC2)c2cc(F)ccc2OC)c1=O [Compound I-70, (R)—N-allyl-2-(1-(2-(5-fluoro-2-methoxyphenyl)-2-((tetrahydro-2H-pyran-4-yl)oxy)ethyl)-5-methyl-2,4-dioxo-6-(2H-1,2,3-triazol-2-yl)-1,4-dihydrothieno[2,3-d]pyrimidin-3(2H)-yl)-2-methylpropanamide] |  |  |  |  |  |  | 1 to 5 nM | 1 to 5 nM | 1 to 5 nM | 1 to 5 nM |  |  |  |  |  |  |  | > 50 µg/mL | > 50 µg/mL | 2 µg/mL (≈ 3.19 µM) | IC90 [2, 27]: 2 µg/mL (≈ 3.19 µM); IC90 [3, 28]: 0.4 µg/mL (≈ 0.638 µM); IC90 [3, 29]: 0.4 µg/mL (≈ 0.638 µM); MIC ([6]; read-out: MIC, C. albicans ATCC 90028, Table 3a, 3 replicates, MIC recorded at 48 h): 0.25 to 1 µg/mL (≈ 0.399 to 1.6 µM); MIC [6, 30]: 0.25 to 1 µg/mL (≈ 0.399 to 1.6 µM); MIC ([7]; read-out: MIC, C. krusei ATCC 6258, Table 3a, 3 replicates, MIC recorded at 48 h): 0.25 to 1 µg/mL (≈ 0.399 to 1.6 µM); MIC [7, 31]: 0.25 to 1 µg/mL (≈ 0.399 to 1.6 µM); MIC ([8]; read-out: MIC, C. parapsilosis ATCC 22019, Table 3a, 3 replicates, MIC recorded at 48 h): 0.25 to 1 µg/mL (≈ 0.399 to 1.6 µM); MIC [8, 32]: 1.01 to 2 µg/mL (≈ 1.61 to 3.19 µM); IC90 [9, 33]: 0.4 µg/mL (≈ 0.638 µM); IC90 [9, 34]: 0.4 µg/mL (≈ 0.638 µM); IC90 [10, 35]: 2 µg/mL (≈ 3.19 µM); IC90 [10, 36]: 2 µg/mL (≈ 3.19 µM) |
